We go through two compounds from article PMC8949075, “Evaluation of Two Novel Hydantoin Derivatives Using Reconstructed Human Skin Model Episkin^TM: Perspectives for Application as Potential Sunscreen Agents” (Molecules, 2022).

The test system of series [1] is selected human skin cells. Also on record: method as in PMID 31238526. The settings on record: cited from earlier work.
The subject of series [2] is Episkin^TM reconstructed human epidermis. Description: Episkin skin permeation test (finite dose, OECD 428). The class given is in vitro ADME. The settings on record: for absorbed amount detected in the RF (of the applied dose) / amount remaining on the surface of the Episkin: 24 h exposure, 10 mg/cm^2 finite dose. The method, then: (§1) The MM was provided by the manufacturer.
(§2) The receptor fluid composition was based on the pilot experiments.
(§3) The formulations of the test compounds (JH3 and JH10) and commercial UV filters were applied onto the skin surface in the donor compartment in a net dose of 10 mg/cm^2 (finite dose application) using disposable flexible loops. To quantify the dose of the formulation applied on the top of the Episkin^TM model, the loops were weighed, filled with approximately 11 mg of formulation, and then reweighed. The difference in weight was used as the amount of formulation applied. Commercial UV filters such as BP3, 4MBC, and AVO were used as reference standards. The filters were obtained from Sigma-Aldrich, Darmstadt, Germany.
(§4) The plate with tissues was embedded with parafilm and incubated at specific time points at 32 °C. As the passive diffusion of chemicals (and therefore their skin absorption) is affected by temperature, the diffusion chamber and skin were maintained at a constant temperature close to normal skin temperature of 32 ± 1 °C [19, 23, 30, 32]. At fixed time points (0, 1, 2, 3, 4, 5, 6, and 24 h), aliquots of the receptor fluid (0.5 mL) were collected from the receptor compartment and immediately replaced with fresh fluid. After 24 h the entire receptor fluid was collected, and the skin surface was washed thoroughly with cotton buds impregnated in methanol (5 times). The tissues were removed from the inserts and both the donor and receptor compartments were washed separately with methanol. The samples were stored at −20 °C until chemical analysis.
(§5) All samples were spiked with 25 µL of pentoxifylline (PTX, Sigma-Aldrich, Darmstadt, Germany) (final concentration of 20 µM) used as an internal standard prior to extraction. The samples were analyzed using ultra high-pressure liquid chromatography coupled with mass spectrometry (UHPLC/MS; Waters Corporation, Milford, MA, USA). Quantification was based on peak area and calculated from standard calibration curves of the compound adjusted by the internal standard area. The assay was in agreement with the Organization for Economic Co-operation and Development (OECD) guideline 428 [19].

Assay in series [3]: as above
The class given is in vitro ADME, human. The settings on record: human; 24 h exposure, 10 mg/cm^2 finite dose, 2% formulation; read-out: recovery in the epidermis (of the applied dose). The method, then: as §1, §2, §3, §4, §5

For series [4], the system named is Episkin^TM reconstructed human epidermis. Description: Episkin skin irritation test (MTT viability, Il-1α release; OECD 439). The settings on record: for Il-1α release: 26 mg/cm^2 topical, 15 min exposure, 42 h post-incubation; for skin irritation classification: 50% viability cut-off (OECD prediction model).
Series [5] has the same test system. Description: Episkin phototoxicity test (UVA 50 J/cm^2; MTT viability, Il-1α release). The class given is cell-based. The settings on record: 0.5 and 1 mM; for phototoxic potential / viability of irradiated epidermis: UVA 50 J/cm^2; for tissue viability without UVA exposure: non-irradiated. As for the experimental part:
as §1
Compounds JH3 and JH10 (final concentrations of 0.5 and 1 mM) solubilized in ethanol (final concentration of 1% in water) were applied topically on the tissue surface. Chlorpromazine (CPZ, chlorpromazine hydrochloride, C17H19ClN2S·HCl, CAS number: 69-09-0, molecular weight: […], purity: meets USP testing specifications, Sigma-Aldrich, Darmstadt, Germany) (final concentration of 0.5 mM, based on literature data) was used as a positive control, whereas solvent alone served as a negative control.
Duplicate plates were prepared for UVA and dark (controls) exposure purposes. After the treatment period of 2 h, the excess test compound was removed from each well, and the tissues were exposed to UVA at a non-cytotoxic dose of 50 J/cm^2 ([…] at 250 W/m^2) with a solar light simulator equipped with a window glass filter and ID65 filter (Suntest CPS+, Atlas, Linsengericht, Germany). The emitted spectrum contained both UV and visible outputs with a UV cut-on of approx. 320 nm and corresponded to ID65 per ISO 10,977 [74]. The irradiance level between 320 and 400 nm was approximated by the following equation: W/m^2 (320–400 nm) = W/m^2 (300–800 nm) ÷ 11.5. In parallel, the non-irradiated treated tissues were placed in the dark under the same conditions. […] Next, cell viability was assessed using an MTT conversion test and the culture media aliquots were kept frozen (−20 °C) for Il-1α measurement (see 2.3.2. The Episkin^TM skin irritation test method section).

The next series concerns CHO-K1 cells. Description: In vitro micronucleus assay. The class given is cell-based, Chinese hamster. The settings on record: for DB (dicentric bridges) / MN (micronuclei) / NB (nuclear buds): count in 1000 binucleated cells per slide; for effect on MN, DB, NB and NDI: 1, 5 and 10 µM. As for the experimental part:
The CHO-K1 cells were seeded in 6-well plates at a density of 1 × 10^6 cells/well and incubated overnight at 37 °C, 5% CO2 atmosphere. […] The test compounds and 4MBC were dissolved in DMSO (solvent, final concentration 0.1%) and ethanol (co-solvent, final concentration 1%). After 24 h of treatment, the medium was removed, and the cells were rinsed with PBS. Then, fresh medium containing cytochalasin B (CytB; Sigma Aldrich, Darmstadt, Germany) (4.5 µg/mL) was added and incubation was continued for the next 24 h.
After the incubation period, the cells were washed with fresh medium, detached by trypsinization, and centrifuged. The supernatant was discarded and 5 mL of 1% ice-cold sodium citrate (Chempur, Piekary Śląskie, Poland) was added to the cell pellet, which was then gently resuspended. After 15 s, 5 mL of freshly prepared fixative solution (methanol/acetic acid, 3:1) and 4 drops of formaldehyde were added. The cell suspension was centrifuged (5 min, 1000 rpm), the supernatant was discarded again, and the pellet was fixed in fixative mixture two more times, without formaldehyde. After the third fixation, part of the supernatant was removed, and around 1 mL of the supernatant was retained to resuspend the cells. The suspension was then dripped onto clean, previously frozen, glass slides to dry. After air-drying, the slides were stained with Giemsa dye (1:20 in phosphate buffer) for 5 min [56, 78, 79].
One thousand binucleated cells per slide with intact nuclei of equal size, similar pattern of cytoplasm staining, intact membrane, and distinguishable from adjacent cells, without apoptotic and necrotic cells were analyzed. Only the micronuclei with the same morphology and color of the main nuclei, with 1/16 to 1/3 of the major nucleus diameter, unrefringent and not overlapping or connected to the main nuclei were counted. Moreover, the presence of dicentric bridges (DB) and nuclear buds (NB) in the binucleated cells was analyzed. The nuclear division index (NDI) was calculated using the following formula: [(1 × MOC) + (2 × BC) + (3 × MUC)]/N, where MOC is the number of mononuclear cells, BC is the number of binuclear cells, MUC represents the number of multinuclear cells, and N is the total number of scored cells. The micronucleus incidence was presented as a number of micronuclei per 1000 examined binuclear cells. The experiment was conducted two times with three repetitions for each condition.

Consider `CCOC(=O)CN1C(=O)/C(=C/C=C/c2ccc(OC)cc2)N(CC(=O)OCC)C1=O` [JH3, diethyl 2,2′-((Z)-4-((E)-3-(4-methoxyphenyl)allylidene)-2,5-dioxoimidazolidine-1,3-diyl)diacetate], for which the cytotoxicity result in series [1] is on record as “no cytotoxicity”. In series [2] (2% formulation), the “absorbed amount detected in the RF (of the applied dose)” value was 1% and the “amount remaining on the surface of the Episkin” value worked out at 95%. In series [2] (after 24 h exposure), the “detectable amount in RF, fold lower than that of JH10” value is “about 28 fold”. The “detection in the receptor fluid over time” value in series [2] (sampling 0-6 and 24 h, 2% formulation, 10 mg/cm^2) is recorded as “undetectable in the RF in the first six hours”. Further, the recovery at 24 h, 2 % in formulation in series [3] amounted to 3%. In series [4], the Il-1α release entry is given as “no significant increase” and the skin irritation classification result is on record as “non-irritants”. Moreover, in series [5], the phototoxic potential entry was “absence of phototoxic potential”, the “viability of irradiated epidermis” value was “no significant difference” and the “tissue viability without UVA exposure” value is reported as “no changes in tissue viability”. In the series with CHO-K1 cells (1 µM), the “NDI (nuclear division index)” value worked out at 1.45, the “DB (dicentric bridges)” value was 3.8, the “MN (micronuclei)” value is recorded as 10.1 ± 3.3 and the “NB (nuclear buds)” value came out at 3.6. In the series with CHO-K1 cells (5 µM), the “NDI (nuclear division index)” value was 1.40, the “DB (dicentric bridges)” value came to 4.1, the “MN (micronuclei)” value turned out to be 10.5 ± 3.9 and the “NB (nuclear buds)” value came out at 3.5. Also, in the series with CHO-K1 cells (10 µM), the “NDI (nuclear division index)” value is 1.32, the “DB (dicentric bridges)” value is reported as 3.6, the “MN (micronuclei)” value came out at 12.0 ± 4.2 and the “NB (nuclear buds)” value is given as 5.4. Besides, the “effect on MN, DB, NB and NDI” value in the series on CHO-K1 cells is recorded as “did not significantly alter any of the evaluated parameters”.

Regarding `CCOC(=O)CN1C(=O)/C(=C/c2ccc(OC)cc2)N(CC(=O)OCC)C1=O` [JH10, diethyl 2,2′-((Z)-4-(4-methoxybenzylidene)-2,5-dioxoimidazolidine-1,3-diyl)diacetate], the cytotoxicity result in series [1] is on record as “no cytotoxicity”. In series [2] (2% formulation), the “absorbed amount detected in the RF (of the applied dose)” value is given as 48% and the “amount remaining on the surface of the Episkin” value is listed as 45%. Also, the “amount in the receptor fluid (RF)” value in series [2] (after the first hour of exposure, 2% formulation, 10 mg/cm^2) came to 1 µg/cm^2. Moreover, in series [3], the recovery at 24 h, 2 % in formulation turned out to be 7%. Also, in series [4], the Il-1α release entry is recorded as “no significant increase” and the skin irritation classification entry is on record as “non-irritants”. For the same compound, in series [5], the phototoxic potential entry was “absence of phototoxic potential”, the “viability of irradiated epidermis” value is “no significant difference” and the “tissue viability without UVA exposure” value is listed as “no changes in tissue viability”. Besides, in the series on CHO-K1 cells (1 µM), the “NDI (nuclear division index)” value turned out to be 1.31, the “DB (dicentric bridges)” value is listed as 3.5, the “MN (micronuclei)” value is given as 9.0 ± 3.9 and the “NB (nuclear buds)” value is 4.3. Further, in the series on CHO-K1 cells (5 µM), the “NDI (nuclear division index)” value is recorded as 1.38, the “DB (dicentric bridges)” value is listed as 3.8, the “MN (micronuclei)” value is given as 11.2 ± 3.6 and the “NB (nuclear buds)” value was found to be 5.2. Further, in the series on CHO-K1 cells (10 µM), the “NDI (nuclear division index)” value is on record as 1.47, the “DB (dicentric bridges)” value is listed as 3.5, the “MN (micronuclei)” value worked out at 9.5 ± 3.7 and the “NB (nuclear buds)” value is 3.2. For the same compound, in the series on CHO-K1 cells, the “effect on MN, DB, NB and NDI” value is on record as “did not significantly alter any of the evaluated parameters”.
